# Data published in patent US11547697B2, “Heterocyclic compounds and uses thereof” (MILLENNIUM PHARMACEUTICALS, INC., priority 2009, dated 2023).
# “Also recorded” adds a separate entry of the source.
# Columns and labels:
# [1] = test system: tumor cells with a PI3Kα mutation (e.g., MDA-MB-361 and T47D); assay: Proliferation of tumor cells with PI3Kα mutation; type: cell-based
# [2] = test system: human umbilical vein endothelial cells (HUVEC); assay: In vitro inhibition of angiogenesis, tube formation assay; type: cell-based; conditions: FIG. 3
# Protocol: Inhibition of angiogenesis in the presence of test compound is evaluated using a tube formation assay, such as by using a tube formation assay kit (e.g., commerically available from Invitrogen). Angiogenic capacity can be measured in vitro using an endothelial cell line, such as human umbilical vein endothelial cells (HUVEC). The assay is conducted according to the kit instructions, in the presence or absence of compound. Briefly, a gel matrix is applied to a cell culture surface, cells are added to the matrix-covered surface along with growth factors, with some samples also receiving an inhibitor compound, cells are incubated at 37° C. and 5% CO2 long enough for control samples (no compound added) to form tube structures (such as overnight), cells are stained using a cell-permeable dye (e.g., calcein), and cells are visualized to identify the degree of tube formation. Any decrease in tube formation relative to un-inhibited control cells is indicative of angiogenic inhibition. […] Based on doses tested and the corresponding degree of tube formation inhibition, IC50 values for tube formation are calculated. FIG. 3 also provides IC50 values for cell viability, which can be measured using any number of methods known in the art, such as staining methods that distinguish live from dead cells (e.g., Image-iT DEAD Green viability stain commercially available from Invitrogen).
# p110γ = p110γ (Homo sapiens (Human), UniProt P48736); assay: PI 3-Kinase (human) HTRF assay, p110γ; type: biochemical; conditions: read-out: PI3K γ IC50
# [3] = test system: 786-O cells, a human kidney carcinoma cell line; assay: In vivo efficacy in 786-O xenograft (non-mutated PI3Kα); design: species or system mice; conditions: FIG. 6
# Source text: For example, a test compound is compared to a kinase inhibitor with specificity for mTor. […] FIG. 6 also provides biochemical potency data for the two compared inhibitors.
# [4] = test system: pAKT(S473), pAKT(T308), pS6, p4E-BP1 in MDA-MB-361, T47D, PC3 cells; assay: Inhibition of PI3K pathway in tumor cells (Western blot of pAKT, pS6, p4E-BP1); type: cell-based; conditions: FIG. 2; 0.1 μM, 1 μM, and 10 μM, about 2 hours
# Protocol: Cells comprising one or more mutations in PI3Kα, including but not limited to breast cancer cells (e.g., MDA-MB-361 and T47D), and cells comprising one or more mutations in PTEN including but not limited to prostate cancer cells (e.g., PC3), are typically grown in cell growth media such as DMEM supplemented with fetal bovine serum and/or antibiotics, and grown to confluency. Cells are then treated with various concentrations of test compound for about 2 hours and subsequently lysed in cell lysis buffer. Lysates are subjected to SDS-PAGE followed by Western blot analysis to detect downstream signaling markers, including but not limited to pAKT(S473), pAKT(T308), pS6, and p4E-BP1.
# HCT116 cells = assay: Cell arrest assay, alone and in combination with MEK inhibitor; type: cell-based, human
# Protocol: Cells are then incubated in the presence of DMSO or inhibitor for 20 hours. The number of cells at each stage in the cell cycle is determined and expressed as a percent of the total, with an increase in the number of cells arrested at pre-GO/G1 indicating effective inhibition of cell cycle progression.
# [5] = test system: MDA-MB-361 (PI3Kα/HER2 carcinoma) tumors; assay: In vivo efficacy in xenogenic mouse model of breast cancer
# Protocol: Blood glucose is monitored periodically following administration of treatment. […] The effect of the compounds on the localization/viability of marginal zone B cells in the spleen is also evaluated at the conclusion of treatment.
# p110α/p85α = p110α/p85α (Homo sapiens (Human), UniProt P42336); assay: PI 3-Kinase (human) HTRF assay, p110α/p85α; type: biochemical; conditions: PI3K α compared with β, δ, γ
# Chain of p110α/p85α (P42336 whole entry): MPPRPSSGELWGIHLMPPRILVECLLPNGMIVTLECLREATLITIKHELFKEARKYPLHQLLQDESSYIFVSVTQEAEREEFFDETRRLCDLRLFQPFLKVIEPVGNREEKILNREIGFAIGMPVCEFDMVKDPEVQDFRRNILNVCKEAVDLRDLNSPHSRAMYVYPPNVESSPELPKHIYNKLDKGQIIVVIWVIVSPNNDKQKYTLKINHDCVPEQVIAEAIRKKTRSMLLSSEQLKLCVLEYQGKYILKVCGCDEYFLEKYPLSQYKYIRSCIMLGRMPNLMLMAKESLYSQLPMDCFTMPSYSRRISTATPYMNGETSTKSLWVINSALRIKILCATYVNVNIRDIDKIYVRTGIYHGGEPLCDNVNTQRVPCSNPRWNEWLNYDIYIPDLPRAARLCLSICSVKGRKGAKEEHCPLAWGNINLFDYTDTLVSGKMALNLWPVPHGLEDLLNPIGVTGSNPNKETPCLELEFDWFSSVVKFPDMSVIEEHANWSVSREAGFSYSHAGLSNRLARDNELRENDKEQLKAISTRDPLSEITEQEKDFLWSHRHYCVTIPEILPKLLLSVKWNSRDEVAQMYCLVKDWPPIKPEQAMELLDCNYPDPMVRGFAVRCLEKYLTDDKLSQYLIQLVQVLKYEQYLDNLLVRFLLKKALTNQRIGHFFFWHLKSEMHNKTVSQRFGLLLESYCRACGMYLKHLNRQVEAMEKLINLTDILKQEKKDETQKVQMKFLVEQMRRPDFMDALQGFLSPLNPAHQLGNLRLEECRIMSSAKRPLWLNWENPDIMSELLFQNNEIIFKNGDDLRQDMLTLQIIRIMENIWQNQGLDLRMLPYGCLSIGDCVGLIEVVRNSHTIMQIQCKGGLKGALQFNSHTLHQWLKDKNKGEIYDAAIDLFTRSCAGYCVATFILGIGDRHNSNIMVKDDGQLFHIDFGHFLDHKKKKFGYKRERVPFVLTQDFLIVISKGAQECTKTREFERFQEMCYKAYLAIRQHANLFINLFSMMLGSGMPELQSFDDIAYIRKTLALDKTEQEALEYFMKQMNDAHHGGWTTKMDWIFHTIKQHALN
# Chain of p110α/p85α (P27986 whole entry partner): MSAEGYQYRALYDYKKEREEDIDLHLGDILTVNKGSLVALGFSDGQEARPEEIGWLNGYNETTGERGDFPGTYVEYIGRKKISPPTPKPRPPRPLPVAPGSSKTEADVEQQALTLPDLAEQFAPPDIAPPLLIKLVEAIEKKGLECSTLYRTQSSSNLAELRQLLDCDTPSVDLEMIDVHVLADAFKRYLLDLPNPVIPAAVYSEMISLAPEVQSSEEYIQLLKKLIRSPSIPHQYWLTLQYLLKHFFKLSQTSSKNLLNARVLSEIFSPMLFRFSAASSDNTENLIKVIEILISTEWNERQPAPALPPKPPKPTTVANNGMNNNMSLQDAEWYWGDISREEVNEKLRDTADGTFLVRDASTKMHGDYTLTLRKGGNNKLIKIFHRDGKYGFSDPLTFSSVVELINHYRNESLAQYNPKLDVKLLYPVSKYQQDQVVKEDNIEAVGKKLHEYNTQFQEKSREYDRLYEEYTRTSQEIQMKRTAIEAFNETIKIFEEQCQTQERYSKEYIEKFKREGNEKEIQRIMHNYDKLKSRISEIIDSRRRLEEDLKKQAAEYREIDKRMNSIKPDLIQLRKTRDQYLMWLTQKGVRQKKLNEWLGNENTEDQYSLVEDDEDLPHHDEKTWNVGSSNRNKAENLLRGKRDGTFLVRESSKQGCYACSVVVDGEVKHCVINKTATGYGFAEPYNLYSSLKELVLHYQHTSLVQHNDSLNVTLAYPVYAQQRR
# Chain of p110γ (P48736 whole entry): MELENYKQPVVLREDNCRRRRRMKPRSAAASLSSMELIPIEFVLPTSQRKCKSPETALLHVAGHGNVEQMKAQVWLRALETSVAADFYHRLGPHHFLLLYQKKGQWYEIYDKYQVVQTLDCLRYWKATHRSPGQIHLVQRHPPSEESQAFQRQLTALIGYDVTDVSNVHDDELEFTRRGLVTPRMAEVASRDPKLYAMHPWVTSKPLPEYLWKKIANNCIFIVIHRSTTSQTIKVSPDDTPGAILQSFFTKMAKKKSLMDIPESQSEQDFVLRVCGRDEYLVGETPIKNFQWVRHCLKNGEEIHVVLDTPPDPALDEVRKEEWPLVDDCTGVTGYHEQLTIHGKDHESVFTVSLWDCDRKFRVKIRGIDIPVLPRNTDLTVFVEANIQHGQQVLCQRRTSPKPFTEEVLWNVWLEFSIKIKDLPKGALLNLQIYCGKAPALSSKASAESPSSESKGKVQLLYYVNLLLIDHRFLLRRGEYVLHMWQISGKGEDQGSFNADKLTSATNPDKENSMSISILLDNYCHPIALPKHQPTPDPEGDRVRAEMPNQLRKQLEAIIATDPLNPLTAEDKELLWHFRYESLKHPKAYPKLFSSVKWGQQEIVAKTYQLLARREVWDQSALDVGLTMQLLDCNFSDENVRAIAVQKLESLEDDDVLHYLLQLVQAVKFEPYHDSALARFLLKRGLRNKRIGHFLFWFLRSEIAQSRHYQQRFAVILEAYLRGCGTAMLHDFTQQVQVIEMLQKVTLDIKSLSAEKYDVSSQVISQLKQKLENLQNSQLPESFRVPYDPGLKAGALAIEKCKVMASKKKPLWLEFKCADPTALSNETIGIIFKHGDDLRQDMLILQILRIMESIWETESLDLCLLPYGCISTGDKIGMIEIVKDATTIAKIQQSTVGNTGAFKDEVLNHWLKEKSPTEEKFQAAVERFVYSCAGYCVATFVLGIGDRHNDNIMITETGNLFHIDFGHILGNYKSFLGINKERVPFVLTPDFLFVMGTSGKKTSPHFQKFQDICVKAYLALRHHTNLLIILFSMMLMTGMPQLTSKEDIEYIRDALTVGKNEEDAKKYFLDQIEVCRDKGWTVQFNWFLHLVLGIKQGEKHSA
smiles,measurement,setting,value
Nc1nc2cc(-c3ccc4ncc(C(=O)N5CCOCC5)n4c3)ccc2o1 [compound 54],Inhibition of proliferation of tumor cells with a PI3Kα mutation,[1]; FIG. 2,inhibits the PI3K pathway and the proliferation of tumor cells with a PI3Kα mutation
same,IC50,"[1]; Homo sapiens, T47D cells, read-out: T47D proliferation",< 10 µM
same,Potency of angiogenesis inhibition (tube formation) compared with Pan-PI3K inhibitor,[2],comparable to higher potency
same,IC50,p110γ,< 10 µM
same,Anti-tumor activity in 786-O tumors,[3],"still showing some anti-tumor activity, has decreased activity by comparison to that seen in the MDA derived tumors"
same,Inhibition of the PI3K pathway (downstream signaling markers),[4],inhibits the PI3K pathway
same,"Arrested cells (pre-GO/G1), percent of the total","HCT116 cells; 3 μM compound 54 combined with 0.3 μM MEK inhibitor (PD0325901), 20 hours, FIG. 7",55%
same,"Cell cycle arrest, single inhibitor versus DMSO control","HCT116 cells; 3 μM compound 54 or 0.3 μM PD0325901, 20 hours",some increase in cell cycle arrest by comparison to DMSO control
same,Combination effect with other (MEK) inhibitors,HCT116 cells; compound 54 plus MEK inhibitor,synergistic
same,Arrested cells expected by merely adding the individual effects,"HCT116 cells; sum of 3 μM compound 54 alone and 0.3 μM MEK inhibitor alone, 20 hours",40%
same,Impact on blood glucose,"[5]; MDA-MB-361 tumor-bearing nude mice, daily oral dosing, FIG. 4",without the impact on blood glucose
same,Kinase- and tumor growth-inhibition activity,"[5]; MDA-MB-361 tumors in nude mice, 30 mpk or 60 mpk test compound, 70 mpk Pan-PI3K inhibitor, daily oral lavage, FIG. 4",comparable kinase- and tumor growth-inhibition activity to the Pan-PI3K inhibitor
same,Localization/viability of marginal zone B cells in the spleen,"[5]; at conclusion of treatment, FIG. 5",does not affect localization/viability of marginal zone B cells
same,"Specificity of PI3K α inhibition versus PI3K β, δ and γ (IC50, FIG. 1 / FIG. 3)",p110α/p85α,"Inhibition of PI3K α at lower concentrations than those for β, δ, and γ; also recorded: specificity for PI3K α inhibition"
